The source of these data is US7192922B2, “Method of treating left ventricular dysfunction” (Allegheny-Singer Research Institute, priority 2002, dated 2007).

Like-named read-outs stand apart in the source and are kept apart here.

The subject of data set [1] is normal dogs and dogs with advanced dilated cardiomyopathy. The data set is described as follows: Acute graded infusion, hemodynamic effects in conscious chronically instrumented dogs. Type of data set: in vivo, dog. The settings on record: for effects on left ventricular pressure, left ventricular dP/dt, cardiac output, heart rate: graded infusions for ten minutes, six normal dogs and six dogs with advanced DCM. From the text:
FIGS. 2a–2d show the dose response to rGLP-1 in normal conscious dogs and conscious dogs with advanced DCM compared to the response to the sympathomimetic, dobutamine.
FIG. 1 illustrates characteristic instrumentation of conscious, chronically instrumented dogs studied in the laboratory. Under sterile surgical technique, the animals are instrumented as indicated and allowed to recover fully from their surgery. At the time, they are taught to lie quietly on the experimental table before study. To determine if acute GLP-1 (7–36 amide) infusion is associated with hemodynamic effects in conscious chronically instrumented dogs, graded infusions for ten minutes at doses of 1.25, 2.5, 5, 10 and 20 pmol/kg/min in six normal dogs and in six dogs with advanced dilated cardiomyopathy were studied. The response of the graded infusion to the classic iontopic agent, Dobutamine, (2.5, 5, 7.5, 10 and 15 μ/kg/min.) was compared. […] Nikolaidis, L A, Hentosz, T, Doverspike, A, et al., “Catecholamine stimulation is associated with impaired myocardial O2 utilization in heart failure,” Cardiovas. Res., 2002;53:392–404, incorporated by reference herein.

In another data set the test system is plasma insulin. The settings on record: cited from earlier work; for plasma insulin levels: GIP 2.0, GLP-1 1.5 pmol·kg−1·min−1.
Data set [2] concerns endothelial dependent coronary vasodilation. Briefly: Coronary flow responses to acetylcholine and nitroglycerin in conscious dogs with advanced DCM after 48-hour infusion. Type of data set: in vivo, dog. As for the experimental part:
FIGS. 7a and 7b show the effects of rGLP-1 on endothelial dependent coronary vasodilation in conscious dogs. Advanced DCM was associated with impaired coronary flow responses to acetylcholine. These responses were restored following 48-hour infusion of rGLP-1. The response to the non-endothelial dependent vasodilator, nitroglycerin was unaffected.
(§1) A 48 hour continuous intravenous infusion of GLP-1 (7–36 amide), (1.5 pmol/kg/min) in five normal dogs to determine the hemodynamic effect of chronic infusion in the absence of dilated cardiomyopathy was conducted. […] FIGS. 3–5 illustrates the effects of GLP-1 (7–36 amide) infusion (1.5 pmol/kg/min) intravenously for 48 hours in 20 conscious, chronically instrumented animals with advanced heart failure. These effects have been compared to similarly instrumented animals with advanced heart failure that received a control saline infusion of equal volume ([…]) illustrate the hemodynamic effects of chronic GLP-1 infusion in advanced DCM. GLP-1 (7–36 amide) infusion was associated with a restoration of left ventricular pressure, improvement in contractility, improvement in cardiac output, and reduction in heart rate and LVEDP. […] GLP-1 was associated with restoration of endothelial dependent vaso dilatation response to acetylcholine (FIG. 7). […] GLP-1 had little effect on increased plasma insulin levels in the setting of euglycemia.

The subject of data set [3] is patients with large myocardial infarction (LVEF<35%). Briefly: 72 hour continuous intravenous infusion in adults with severe acute myocardial infarction, LV function. Type of data set: in vivo, human. Particulars: 1.5 pmol/kg/min i.v. 72 hours after percutaneous coronary intervention; ten adults vs eleven on standard care. The method, then: The effects of continuous intravenous infusion of GLP-1 (1.5 pmol/kg/min) intravenously for 72 hours was studied in ten adults presenting with severe acute myocardial infarction. These were compared to eleven adults with similar large myocardial infarction (LVEF<35%) all of whom underwent percutaneous coronary intervention and subsequently were treated for 72 hours thereafter.

The next data set deals with normal dogs. The data set is described as follows: 48 hour continuous intravenous infusion, hemodynamic effect in normal dogs. Type of data set: in vivo, dog. Particulars: 1.5 pmol/kg/min i.v. 48 hours; five normal dogs. As for the experimental part: as §1
The subject of data set [4] is conscious dogs with advanced DCM. The data set is described as follows: 48 hour intravenous infusion, hemodynamics and myocardial sympathetic activity in conscious dogs with advanced heart failure (DCM). Type of data set: in vivo, dog.
Excerpt: FIGS. 3a–3d show the effects of r GLP-1 on LV systolic pressure, LV end diastolic pressure, LV dP/dt, and heart rate in conscious dogs with advanced DCM compared to saline control.
FIGS. 4a–4d show the effects of rGLP-1 on cardiac output, stroke volume, LV ejection fraction, systemic vascular resistance in conscious dogs with advanced DCM compared to saline control.
FIGS. 5a and 5b show the effects of rGLP-1 on stroke work and LV external efficiency in conscious dogs with advanced DCM compared to saline control.
FIGS. 6a and 6b show the effects of rGLP-1 on transmyocardial norepinephrine uptake as a reflection of sympathetic drive to the myocardium in conscious dogs with advanced DCM compared to saline controls.
as §1

The subject of data set [5] is myocardial substrate uptake. The data set is described as follows: Myocardial substrate uptake and metabolic parameters in dogs with advanced DCM, 48 h infusion (Table 1). Type of data set: in vivo, dog. The settings on record: for Glucose myocardial uptake / Lactate myocardial uptake / NE (transmyocardial norepinephrine uptake) / NEFA myocardial uptake: GLP-1 group (n = 9); for Insulin/Glucagon: ratio insulin (pmol/L) to glucagon (pg/ml), GLP-1 group. The method, then: as §1

The next data set deals with restrained rats. Particulars: rat, in vivo, sc; cited from earlier work.
Where [6] appears, read: hyperglycemia 10.4 mmol/l, hyperglycemia alone ~280 pmol/l.
Setting [7] is: hyperglycemia 187 mg/dl, hyperglycemia alone 47 μU/ml.
Setting [8] is: 1.5 pmol/kg/min i.v. 48 hours, vs saline.
Setting [9] is: Baseline (before CHF and infusion).
Where [10] appears, read: advanced DCM, vs saline controls.

In the case of `CC(CCc1ccc(O)cc1)NCCc1ccc(O)c(O)c1` (centres unmarked) [Dobutamine], the “hemodynamic effects of graded infusion, heart failure” value in data set [1] (dogs with heart failure (advanced DCM), graded infusion) is listed as “de-sensitized effects”. For the same compound, the “hemodynamic effects of graded infusion, normal dogs” value in data set [1] (normal dogs, graded infusion) is reported as “predictable effects”.
Regarding GLP-1 (7–36 amide), the plasma insulin levels with plasma insulin (setting [6]) was around 2000 pmol/L. Also, in the data set on plasma insulin (setting [7]), the plasma insulin levels is given as 333 μU/ml. Also, the “relative potency as incretin” value with plasma insulin (hyperglycemia, infusion) is “more potent than GIP”. Also, in data set [2], the “endothelial dependent vasodilatation (coronary flow) response to acetylcholine” value is “restoration” and the “response to the non-endothelial dependent vasodilator nitroglycerin” value is given as “unaffected”. Besides, in data set [2] (listed as rGLP-1), the “endothelial dependent vasodilatation (coronary flow) response to acetylcholine” value is reported as “restored”. In addition, the left ventricular function result in data set [3] is “improvement”. Further, the “hemodynamic effects of chronic infusion” value with normal dogs was “no significant hemodynamic effects”. In data set [4] (setting [8]), the LVEDP result is listed as “reduction”, the cardiac output entry is given as “improvement”, the contractility entry is given as “improvement” and the heart rate entry is “reduction”. In addition, in data set [4] (setting [8]), the left ventricular pressure entry is on record as “restoration”. For the same compound, the myocardial sympathetic activity entry in data set [4] (infusion compared to saline) is “suppression”. In addition, in data set [1], the “effects on left ventricular pressure, left ventricular dP/dt, cardiac output, heart rate” value is recorded as “no significant, dose related effects”. Also, the “effects on left ventricular pressure, left ventricular dP/dt, cardiac output, heart rate” value in data set [1] (listed as rGLP-1) is “no acute hemodynamic effects”. In data set [5] (24 hrs of infusion), the Glucose myocardial uptake came out at 8.72 ± 1.05 µmol/min, the Lactate myocardial uptake was found to be 3.61 ± 0.62 µmol/min, the “NE (transmyocardial norepinephrine uptake)” value stood at 26.3 ± 3.1 pmol/min and the NEFA myocardial uptake came out at 4.53 ± 0.58 µmol/min. For the same compound, in data set [5] (48 hrs of infusion), the Glucose myocardial uptake worked out at 7.00 ± 0.94 µmol/min, the Lactate myocardial uptake amounted to 4.04 ± 0.74 µmol/min, the “NE (transmyocardial norepinephrine uptake)” value is 30.5 ± 4.9 pmol/min and the NEFA myocardial uptake stood at 5.16 ± 0.73 µmol/min. Moreover, the Insulin/Glucagon in data set [5] (48 hrs of infusion) is listed as 3.12 ± 0.24. For the same compound, in data set [5] (setting [9]), the Glucose myocardial uptake is 6.67 ± 1.22 µmol/min, the Lactate myocardial uptake turned out to be 4.78 ± 1.04 µmol/min, the “NE (transmyocardial norepinephrine uptake)” value was 30.9 ± 4.8 pmol/min and the NEFA myocardial uptake came to 5.23 ± 0.83 µmol/min. Besides, the Insulin/Glucagon in data set [5] (setting [9]) was 1.36 ± 0.21. Further, in data set [5] (CHF (before infusion)), the Glucose myocardial uptake worked out at 3.44 ± 0.81 µmol/min, the Lactate myocardial uptake is 2.64 ± 0.91 µmol/min, the “NE (transmyocardial norepinephrine uptake)” value came out at 18.7 ± 3.6 pmol/min and the NEFA myocardial uptake was found to be 3.17 ± 0.61 µmol/min. Moreover, the Insulin/Glucagon in data set [5] (CHF (before infusion)) is listed as 1.79 ± 0.29. In addition, in data set [5] (setting [10]), the “myocardial glucose uptake” value is “enhanced” and the “ratio of insulin (pmol/L) to glucagon (pg/ml)” value is “significant increase”. The plasma insulin levels result in data set [5] (setting of euglycemia, advanced DCM) is listed as “little effect”.
In the case of exendin-4 [excendin 4], in the data set on restrained rats, the “blood pressure and heart rate” value is “hypertension and tachycardia”.
With “glucose-dependent insulinotropic polypeptide [GIP]”, the plasma insulin levels in the data set on plasma insulin (setting [6]) is around 900 pmol/L; in the data set with plasma insulin (setting [7]), 150 μU/ml. Besides, the “insulinotropic action during euglycemia” value in the data set with plasma insulin (normal subjects, euglycemia) is given as “not”.
